Measurements from PubChem BioAssay AID2388 (Broad Institute, 2010).
The source made the active and inactive calls.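 How the source made its calls: active means fitted EC50 no more than ten times the top tested dose; inconclusive means flat fit with 30% to 70% inhibition, or a poor fit; inactive means EC50 beyond ten times the top tested dose.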

Tested on: S. cerevisiae CDRE-lacZ reporter, CaCl2, luminescence
Experiment: blockers of CaCl2-induced CDRE-lacZ signaling – S. cerevisiae, luminescence, secondary, dose response (AID 2388)

Row | EC50 | SMILES
1 | > 18 µM (inactive) | NC(=NCCCCCCN=C(N)/N=C(\N)Nc1ccc(Cl)cc1)/N=C(\N)Nc1ccc(Cl)cc1
2 | > 18 µM (inactive) | CC1CCC(C(C)C)C(OC(=O)Cn2c(-c3ccc(Br)cc3)[n+](C)c3ccccc32)C1 (configuration not stated)
